Results from patent publication US20170312207A1, “MOISTURIZING AGENT” (SHOWA DENKO K.K., priority 2014, published 2017).

How the values were obtained:
loricrin gene = experiment: Promoting expression of CE-forming-related factor: loricrin gene, quantitative real-time PCR; assay type: cell-based, human; details: SVHK cells, 1 μM, 48 hours; standardized to GAPDH; purified water control 1.00
Procedure: (§1) Loricrin, involucrin, and transglutaminase-1 are known as CE-forming-related factors. Here, effect of an inositol derivative on promoting expression of CE-forming-related factors was examined by using human epidermal cells. Human epidermal cells (SVHK cells) which were established from introduction of SV40 gene into human epidermal cells, were seeded on a plastic petri dish at a seeding density of 10,000 cells/cm^2 and cultured for 24 hours in Dulbecco's Modified Eagle's Medium (DMEM, manufactured by Sigma-Aldrich Co. LLC.) containing 10% fetal bovine serum. […] Next, quantitative real-time PCR was performed using this cDNA as a template, and the expression levels of loricrin gene, involucrin gene, and transglutaminase-1 (TG-1) gene in SVHK cells of each group were quantified, respectively. In addition, the expression level of glyceraldehyde-3-phosphate dehydrogenase (GAPDH) which is a housekeeping gene in which variation is not observed in the expression by adding a compound, as an internal standard gene, was quantified, and based on the expression levels of GAPDH gene in SVHK cells of each group, the expression levels of loricrin gene, involucrin gene, and TG-1 gene were standardized. […]

involucrin gene = experiment: Promoting expression of CE-forming-related factor: involucrin gene, quantitative real-time PCR; assay type: cell-based, human; details: SVHK cells, 1 μM, 48 hours; standardized to GAPDH; purified water control 1.00
Procedure: as §1

[1] = tested on: transglutaminase-1 (TG-1) gene; experiment: Promoting expression of CE-forming-related factor: transglutaminase-1 (TG-1) gene, quantitative real-time PCR; assay type: cell-based, human; details: SVHK cells, 1 μM, 48 hours; standardized to GAPDH; purified water control 1.00
Procedure: as §1

[2] = tested on: Normal human epidermal keratinocytes (NHEK cell); experiment: Test for evaluating CE-forming ability; assay type: cell-based; details: NHEK cells, 1.8 mM Ca2+ medium, 1 μM, four days; purified water control 100
Procedure: Normal human epidermal keratinocytes (NHEK cell manufactured by KURABO INDUSTRIES LTD.) were seeded on a 24 well plate at 1×10^5 cells/cm^2 and cultured at 37° C. under 5% CO2 to reach confluence. As a medium of NHEK cells, HuMedia-KG2 (product name, manufactured by KURABO INDUSTRIES LTD.) was used. After that, the medium was replaced to HuMedia-KG2 medium containing 1.8 mM Ca2+, the inositol derivative dissolved in purified water of Example 2 was added to the final concentration of 1 μM, and culturing was further performed for four days. As for a control, in place of the inositol derivative, the same amount of purified water was added to NHEK cells, and the cells were cultured in the same manner as above. In addition, for comparison, myo-inositol dissolved in purified water was added to NHEK cells in place of the inositol derivative, and the cells were cultured in the same manner as above. After four days of culturing, cells of each group were collected, removed of the supernatant, added with 2% sodium dodecyl sulfate (SDS)-20 mM dithiothreitol (DTT), and heated at 100° C. for 15 minutes. Next, the cells were added with 1% acetic acid-50% ethanol, centrifuged (at 15,000 rpm for five minutes), and removed of the supernatant. Next, the cells were added with 10 mM Tris-HCl-1 mM EDTA and observed with a microscope, and an amount of CE formation was counted. […]

AQP3 gene = experiment: Promoting effect on AQP3 expression, quantitative real-time PCR; assay type: cell-based, human; details: SVHK cells, 1 μM, 48 hours; standardized to GAPDH; purified water control 1.00
Procedure: (§2) Human epidermal cells (SVHK cells) which were established from introduction of SV40 gene into human epidermal cells, were seeded on a plastic petri dish at a seeding density of 10,000 cells/cm^2 and cultured for 24 hours in Dulbecco's Modified Eagle's Medium (DMEM, manufactured by Sigma-Aldrich Co. LLC.) containing 10% fetal bovine serum. Next, to the medium of SVHK cells, the inositol derivatives dissolved in purified water of Examples 1 to 6 and Comparative Example 1 were added to the final concentration of 1 μM, and culturing was further performed for 48 hours. As for a control, in place of the inositol derivative, the same amount of purified water was added to SVHK cells, and the cells were cultured in the same manner as above. […] Next, quantitative real-time PCR was performed using this cDNA as a template, and the expression levels of AQP3 gene in SVHK cells of each group were quantified. In addition, the expression level of glyceraldehyde-3-phosphate dehydrogenase (GAPDH) which is a housekeeping gene in which variation is not observed in the expression by adding a compound, as an internal standard gene, was quantified, and based on the expression levels of GAPDH gene in SVHK cells of each group, the expression levels of AQP3 gene were standardized. […]

SPT1 gene = experiment: Promoting effect on serine palmitoyltransferase expression: SPT1 gene; assay type: cell-based, human; details: SVHK cells, 10 μM, 48 hours; standardized to GAPDH; purified water control 1.00
Procedure: (§3) Serine palmitoyltransferase (SPT) is known as a rate-limiting enzyme for ceramides synthesis. Here, effect of an inositol derivative on promoting SPT gene expression was examined by using human epidermal cells. Human epidermal cells (SVHK cells) which were established from introduction of SV40 gene into human epidermal cells, were seeded on a plastic petri dish at a seeding density of 10,000 cells/cm^2 and cultured for 24 hours in Dulbecco's Modified Eagle's Medium (DMEM, manufactured by Sigma-Aldrich Co. LLC.) containing 10% fetal bovine serum. […] Next, quantitative real-time PCR was performed using this cDNA as a template, and the expression levels of SPT gene in SVHK cells of each group were quantified. More specifically, the expression levels of SPT1, SPT2, and SPT3 genes which are subunits of SPT were quantified. In addition, the expression level of glyceraldehyde-3-phosphate dehydrogenase (GAPDH) which is a housekeeping gene in which variation is not observed in the expression by adding a compound, as an internal standard gene, was quantified, and based on the expression levels of GAPDH gene in SVHK cells of each group, the expression levels of SPT1, SPT2, and SPT3 genes were standardized. […]

SPT2 gene = experiment: Promoting effect on serine palmitoyltransferase expression: SPT2 gene; assay type: cell-based, human; details: SVHK cells, 10 μM, 48 hours; standardized to GAPDH; purified water control 1.00
Procedure: as §3

SPT3 gene = experiment: Promoting effect on serine palmitoyltransferase expression: SPT3 gene; assay type: cell-based, human; details: SVHK cells, 10 μM, 48 hours; standardized to GAPDH; purified water control 1.00
Procedure: as §3

filaggrin gene = experiment: Promoting effect on filaggrin gene expression, quantitative real-time PCR; assay type: cell-based, human; details: SVHK cells, 10 μM, 48 hours; standardized to GAPDH; purified water control 1.00
Procedure: as §2, with “Effect of an inositol derivative on promoting filaggrin gene expression was examined by using human epidermal cells. Human epidermal” for “Human epidermal”, “concentration of 10 μM, and” for “concentration of 1 μM, and”, “levels of filaggrin gene in” for “levels of AQP3 gene in”, “levels of filaggrin gene were” for “levels of AQP3 gene were”

For `O[C@H]1[C@H](O)[C@@H](O)[C@H](O)[C@@H](O)[C@H]1O` [Myo-inositol, myo-inositol], the “Expression levels of gene (relative value) lorierin” value (loricrin gene) was 0.39, the “Expression levels of gene (relative value) involucrin” value (involucrin gene) was 2.42 and the “Expression levels of gene (relative value) TG-1” value [1] was 1.96. The “Amount of CE formation (relative value)” value [2] was 123, the “Expression levels of AQP3 gene (relative value)” value (AQP3 gene) was 0.83 and the “Expression levels of gene (relative value) SPT1” value (SPT1 gene) was 2.01. The “Expression levels of gene (relative value) SPT2” value (SPT2 gene) was 2.49, the “Expression levels of gene (relative value) SPT3” value (SPT3 gene) was 1.64 and the “Expression levels of filaggrin gene (relative value)” value (filaggrin gene) was 5.94.
